Experimental data: PubChem BioAssay (NCI)
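Values below derive from 48-hour exposures of cells grown in 96-well plates, with endpoints linearly interpolated between the two concentrations bracketing the appropriate inhibition level. Abbreviation: GI50, concentration required for 50% inhibition of growth. TGI is the concentration that stops growth completely.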

Tests used:
Experiment in all cases: NCI tumour cell line growth inhibition, 48 h
K-562 leukemia = system: K-562 leukemia
ACHN renal = system: ACHN renal
MALME-3M melanoma = system: MALME-3M melanoma
HT29 colon = system: HT29 colon
MOLT-4 leukemia = system: MOLT-4 leukemia
SK-MEL-2 melanoma = system: SK-MEL-2 melanoma
SR leukemia = system: SR leukemia
MCF7 breast = system: MCF7 breast
A549 NSCLC = system: A549 NSCLC
EKVX NSCLC = system: EKVX NSCLC
CAKI-1 renal = system: CAKI-1 renal
HS 578T breast = system: HS 578T breast
M14 melanoma = system: M14 melanoma
BT-549 breast = system: BT-549 breast
NCI-H23 lung = system: NCI-H23 lung
HCC-2998 colon = system: HCC-2998 colon
KM12 colon = system: KM12 colon
T-47D breast = system: T-47D breast
TK-10 renal = system: TK-10 renal
SN12C renal = system: SN12C renal
NCI-H522 lung = system: NCI-H522 lung
MDA-MB-231 breast = system: MDA-MB-231 breast
IGROV1 ovarian = system: IGROV1 ovarian
HOP-62 NSCLC = system: HOP-62 NSCLC
CCRF-CEM leukemia = system: CCRF-CEM leukemia
SNB-75 CNS = system: SNB-75 CNS
COLO 205 colon = system: COLO 205 colon
DU-145 prostate = system: DU-145 prostate
SF-268 CNS = system: SF-268 CNS
SW-620 colon = system: SW-620 colon
NCI/ADR-RES ovarian = system: NCI/ADR-RES ovarian
NCI-H226 lung = system: NCI-H226 lung
PC-3 prostate = system: PC-3 prostate
HCT-116 colon = system: HCT-116 colon
HL-60(TB) leukemia = system: HL-60(TB) leukemia
SNB-19 CNS = system: SNB-19 CNS
SK-MEL-28 melanoma = system: SK-MEL-28 melanoma
OVCAR-3 ovarian = system: OVCAR-3 ovarian
A498 renal = system: A498 renal
LOX IMVI melanoma = system: LOX IMVI melanoma
RPMI-8226 leukemia = system: RPMI-8226 leukemia
UACC-257 melanoma = system: UACC-257 melanoma
SK-OV-3 ovarian = system: SK-OV-3 ovarian
OVCAR-5 ovarian = system: OVCAR-5 ovarian
MDA-MB-435 = system: MDA-MB-435
SK-MEL-5 melanoma = system: SK-MEL-5 melanoma
OVCAR-4 ovarian = system: OVCAR-4 ovarian
UACC-62 melanoma = system: UACC-62 melanoma
786-0 renal = system: 786-0 renal
UO-31 renal = system: UO-31 renal
NCI-H460 lung = system: NCI-H460 lung
HOP-92 NSCLC = system: HOP-92 NSCLC
U251 CNS = system: U251 CNS
RXF 393 renal = system: RXF 393 renal
SF-295 CNS = system: SF-295 CNS
HCT-15 colon = system: HCT-15 colon
OVCAR-8 ovarian = system: OVCAR-8 ovarian
SF-539 CNS = system: SF-539 CNS

**Q.** Which results are given for `CCCSc1ccc2nc(NC(=O)OC)[nH]c2c1`?
**A.** GI50 (K-562 leukemia): 76.2 nM; TGI (K-562 leukemia): > 100000 nM; GI50 (ACHN renal): 2640 nM; TGI (ACHN renal): > 100000 nM; GI50 (MALME-3M melanoma): 425 nM; TGI (MALME-3M melanoma): > 100000 nM; GI50 (HT29 colon): 235 nM; GI50 (MOLT-4 leukemia): 547 nM; TGI (MOLT-4 leukemia): > 100000 nM; GI50 (SK-MEL-2 melanoma): 538 nM; TGI (SK-MEL-2 melanoma): > 100000 nM; GI50 (SR leukemia): 48.2 nM; GI50 (MCF7 breast): 380 nM; TGI (MCF7 breast): > 100000 nM; GI50 (A549 NSCLC): 438 nM; TGI (A549 NSCLC): > 100000 nM; GI50 (EKVX NSCLC): > 37000 nM; TGI (EKVX NSCLC): > 100000 nM; TGI (CAKI-1 renal): > 100000 nM; GI50 (HS 578T breast): 378 nM; TGI (HS 578T breast): > 100000 nM; GI50 (M14 melanoma): 260 nM; GI50 (BT-549 breast): 1500 nM; TGI (BT-549 breast): > 100000 nM; GI50 (NCI-H23 lung): 585 nM; TGI (NCI-H23 lung): > 100000 nM; GI50 (HCC-2998 colon): 1010 nM; TGI (HCC-2998 colon): > 33800 nM; GI50 (KM12 colon): 206 nM; TGI (KM12 colon): > 100000 nM; GI50 (T-47D breast): 298 nM; TGI (T-47D breast): > 100000 nM; GI50 (TK-10 renal): > 100000 nM; TGI (TK-10 renal): > 100000 nM; GI50 (SN12C renal): 823 nM; TGI (SN12C renal): > 100000 nM; GI50 (NCI-H522 lung): 202 nM; TGI (NCI-H522 lung): 666 nM; GI50 (MDA-MB-231 breast): 1060 nM; TGI (MDA-MB-231 breast): > 100000 nM; GI50 (IGROV1 ovarian): 1370 nM; TGI (IGROV1 ovarian): > 100000 nM; GI50 (HOP-62 NSCLC): 380 nM; TGI (HOP-62 NSCLC): > 68700 nM; GI50 (CCRF-CEM leukemia): 276 nM; TGI (CCRF-CEM leukemia): > 100000 nM; GI50 (SNB-75 CNS): 143 nM; GI50 (COLO 205 colon): 241 nM; TGI (COLO 205 colon): 702 nM; GI50 (DU-145 prostate): 336 nM; TGI (DU-145 prostate): > 71500 nM; GI50 (SF-268 CNS): 1340 nM; TGI (SF-268 CNS): > 100000 nM; GI50 (SW-620 colon): 223 nM; TGI (SW-620 colon): > 100000 nM; GI50 (NCI/ADR-RES ovarian): 227 nM; GI50 (NCI-H226 lung): 456 nM; TGI (NCI-H226 lung): 5970 nM; GI50 (PC-3 prostate): 354 nM; TGI (PC-3 prostate): > 100000 nM; GI50 (HCT-116 colon): 416 nM; TGI (HCT-116 colon): > 100000 nM; GI50 (HL-60(TB) leukemia): 228 nM; TGI (HL-60(TB) leukemia): 791 nM; GI50 (SNB-19 CNS): 525 nM; TGI (SNB-19 CNS): > 100000 nM; GI50 (SK-MEL-28 melanoma): 952 nM; TGI (SK-MEL-28 melanoma): > 100000 nM; GI50 (OVCAR-3 ovarian): 196 nM; TGI (OVCAR-3 ovarian): 509 nM; GI50 (A498 renal): 258 nM; TGI (A498 renal): 5030 nM; GI50 (LOX IMVI melanoma): 718 nM; TGI (LOX IMVI melanoma): > 100000 nM; GI50 (RPMI-8226 leukemia): 378 nM; TGI (RPMI-8226 leukemia): > 100000 nM; TGI (UACC-257 melanoma): > 100000 nM; GI50 (SK-OV-3 ovarian): 285 nM; TGI (SK-OV-3 ovarian): 2910 nM; GI50 (OVCAR-5 ovarian): 2080 nM; TGI (OVCAR-5 ovarian): > 100000 nM; GI50 (MDA-MB-435): 34.8 nM; TGI (MDA-MB-435): 202 nM; GI50 (SK-MEL-5 melanoma): 290 nM; TGI (SK-MEL-5 melanoma): > 100000 nM; GI50 (OVCAR-4 ovarian): 792 nM; TGI (OVCAR-4 ovarian): > 100000 nM; GI50 (UACC-62 melanoma): 626 nM; TGI (UACC-62 melanoma): > 100000 nM; GI50 (786-0 renal): 634 nM; TGI (786-0 renal): > 100000 nM; GI50 (UO-31 renal): 890 nM; TGI (UO-31 renal): > 100000 nM; GI50 (NCI-H460 lung): 342 nM; TGI (NCI-H460 lung): > 100000 nM; GI50 (HOP-92 NSCLC): 712 nM; TGI (HOP-92 NSCLC): > 100000 nM; GI50 (U251 CNS): 411 nM; TGI (U251 CNS): > 100000 nM; GI50 (RXF 393 renal): 208 nM; TGI (RXF 393 renal): 598 nM; GI50 (SF-295 CNS): 290 nM; TGI (SF-295 CNS): > 32800 nM; GI50 (HCT-15 colon): 366 nM; TGI (HCT-15 colon): > 100000 nM; GI50 (OVCAR-8 ovarian): 486 nM; TGI (OVCAR-8 ovarian): > 100000 nM; GI50 (SF-539 CNS): 323 nM; TGI (SF-539 CNS): > 24400 nM
